The results in this text go back to patent US7371780B2, “Use of calphostin C to treat drug-resistant tumor cells” (priority 2003, dated 2008).

Holding throughout (assay type): cell-based, human
Test [1] concerns MCF-7 cells. The test is described as follows: Drug uptake (flow cytometry / scintillation counting), MCF-7. The note with it: 100 nM calphostin C. As for the experimental part: (§1) FIG. 5 illustrates the effect of calphostin C (Cal-C) on drug uptake in MCF-7 (square symbols), MCF-7TAX (diamond symbols) and MCF-7DOX (triangular symbols) cells. After one-day growth, the cells were left untreated (closed symbols) or treated with 100 nM calphostin C for 2 h with light activation (open symbols). Cells were then washed and the medium replaced with medium containing 2 μM of doxorubicin (A) or [^3H]-paclitaxel (B). The cells were then trypsinized and drug accumulation measured by flow cytometry (A) or liquid scintillation counting (B) at indicated time points. The figures are representative of three independent experiments.
Background: In flow cytometry, cells or beads pass a laser one at a time.

For test [2], the system named is MCF-7TAX cells. The test is described as follows: Drug uptake, MCF-7TAX. As for the experimental part:
as §1

For test [3], the system named is MCF-7TAX cells. The test is described as follows: Flow cytometric sub-G1 DNA content, MCF-7TAX. The note with it: 100 nM calphostin C, 2 h light. As for the experimental part: For flow cytometric analysis, cells at about 50% to 60% confluence were released from their flasks by trypsin treatment and washed with PBS. After centrifugation at 1000 rpm for 5 min, cells were then fixed by resuspension in 75% ethanol for 2 hours, collected by centrifugation, and resuspended in PI staining solution (see above) for 1 h. For each sample, approximately 2×10^4 cells were analyzed using a Beckman Coulter Epics® Elite flow cytometer. Fluorescence intensity upon stimulation with an argon-ion laser at 488 nm was measured using the PMT4 channel (625DL filter) and plotted against cell number. The percentage of cells with a sub-G1 DNA content was determined by the flow cytometer, adjusting the gates such that only cells with a fluorescence lower than the peak for untreated cells in G1 are counted (see FIG. 4).

The subject of test [4] is MCF-7 cells. The test is described as follows: Microscopic cell morphology (bright field, AO/EB, PI), MCF-7. Particulars: 50 nM light-activated calphostin C. The protocol:
For microscopic observation, cells were seeded onto standard glass coverslips in 10 cm tissue culture plates with 10 ml of H21 medium and grown for 2 days until 40-50% confluence was obtained. After treatment with paclitaxel, doxorubicin or calphostin C, the cells on the glass coverslips were washed twice with PBS (2.7 mM KCl, 1.0 mM KH2PO4, 137 mM NaCl, 10 mM Na2HPO4, pH 7.4) and stained with acridine orange/ethidium bromide (each at 4 μg/ml in PBS) for 10 min at 37° C.. The coverslips were then washed three times in PBS and mounted onto standard glass slides for morphological evaluation. For propidium iodide (PI) staining, the cells on coverslips were washed twice with PBS and fixed in methanol (cooled to −20° C.) for 20 min. Thirty μl of propidium iodide (PI) staining solution (100 μg/ml PI, 0.1% sodium citrate, 100 μg/ml RNase A and 0.3% Nonidet P-40) were then applied to the coverslips for 5 min. […] The cells were then examined using a Zeiss Axiovert 100 inverted fluorescence microscope. […] For each sample, the number of dead cells was determined by visualization after ethidium bromide staining, whereby only dead cells which have lost membrane integrity allow entry of cell-impermeable ethidium bromide into cells to complex with DNA and induce bright red fluorescence. […] The images were recorded and overlayed using Northern Eclipse software (Empix Imaging Inc., Mississauga, ON).

Test [5] has as its system MCF-7 cells. The test is described as follows: Cytoplasmic shrinkage by hematoxylin/eosin staining, MCF-7. As for the experimental part: For staining with hematoxylin and eosin, cells were grown in a six-well culture plate with each well containing a Snowcoat X-Tra™ microscope slide (Surgipath Laboratories, MB) immersed in 3 ml of H21 medium. When the cells reached 50% confluence, they were treated with 0-300 nM calphostin C, followed by a 2 hour exposure of the cultures to fluorescent light as described above. After light activation, the cells were placed in a 37° C. humidified incubator with 5% CO2 and incubated for an additional 22 hours. The cells were then stained with hematoxylin and eosin using a previously described procedure. Briefly, the media was removed from cell cultures and the cells that remained adhered to the slides were washed with PBS, fixed in formalin:acetone (1:2) for 2 min, and allowed to air dry for 10 min. After washing with distilled water, 250 μl of hematoxylin solution (BDH Chemicals, Toronto, ON) was placed on each slide and allowed to incubate with the cells for 5 min. The slides were then washed with distilled water, Scott's tap water (20 g MgSO4.7H2O, 1.5 g NaHCO3 in 1 L H2O), and a final wash with distilled water. The cells on the slides were then stained for 5 min in 250 μl of eosin solution (100 ml of 1% eosin, 10 ml of 1% phyloxine, 4 ml of glacial acetic acid, and 780 ml of 95% ethanol). The cells were then dehydrated by washing three times in 95% ethanol and twice in 100% ethanol. The small slide was then mounted on a standard microscope glass slide, and 10 randomly selected fields were viewed at 100× magnification and photographed. For each concentration of calphostin C, the total number of dead cells in each field was ascertained and expressed relative to the total number of cells in the field.

Molecules are shown by their SMILES.

For the molecule `COc1c(C[C@@H](C)OC(=O)Oc2ccc(O)cc2)c2c3c(C[C@@H](C)OC(=O)c4ccccc4)c(OC)c(=O)c4c(O)cc(OC)c(c5c(OC)cc(O)c(c1=O)c52)c43` [calphostin C], in test [1], the “effect on paclitaxel accumulation” value was “decreased paclitaxel accumulation”. The “effect on doxorubicin uptake” value in test [2] (100 nM calphostin C 2 h with light, then 2 μM doxorubicin) is given as “little ability to re-establish doxorubicin uptake”. In test [2] (100 nM calphostin C, early time points, back to control by 18 hours), the “effect on paclitaxel uptake” value is “slightly restored”. The “time of strong increase in percentage of sub-G1 cells after treatment” value in test [3] was 8 h. In addition, in test [4], the “percentage of cells showing cytoplasmic vacuoles” value is “Over 50%”. Also, in test [5], the “concentration required for complete cytoplasmic shrinkage” value is reported as 300 nM. Also, the “percentage of cells exhibiting cytoplasmic shrinkage” value is on record as 20% in test [5] (25 nM calphostin C, 2 h light, 24 h) and 35% in test [5] (50 nM calphostin C).
